Tests used:
[1] = test system: trypomastigote of T. cruzi Dm28; experiment: Trypanocidal activity (MTT) on trypomastigotes; format: cell-based; conditions: Trypanosoma cruzi; for killing at 100 µM: 24 h, n.a = not active, read-out: % T. cruzi Trypomastigote (trypanocidal effect); for IC50: T. cruzi Dm28, 24 h
Protocol: As a preliminary step, a study of nitroisoxazole derivatives on the epimastigote form of T. cruzi was performed. Despite the epimastigote form not being a clinical form present in mammals, its easy handling has allowed screening for the trypanocidal activity of various compounds. It is worth noting that, during the intracellular life cycle of the parasite, a form similar to the epimastigote, which is biochemically and morphologically identical to the form present in the vector, has been described. […] This is consistent with studies by Fonseca-Berzal et al. […] Additionally, compounds with higher activity have aromatic rings as substituents for nitroisoxazoles, confirming what was described Do […] [40]. […] It has also been determined that the presence of an isoxazole is essential for activity, as its aromatic structure contains a weak nitrogen-oxygen bond that, under different reaction conditions, can undergo ring cleavage, increasing activity. The results obtained on epimastigotes cannot be conclusive for determining potential Chagas agents, so conducting studies on the infective, extracellular, non-replicative trypomastigote form of T. cruzi present in humans is essential. […] RPMI 1640 medium) for 24 h. […] The effects of the compounds on trypomastigote and Vero cell viability were evaluated by tetrazolium salt reduction assay (MTT). […] The plates were kept overnight at 37 °C (28 °C for epimastigotes), and the optical density (OD) was determined using a 96-well microplate reader (Vantaa, Finland) at 570 nm. Under these conditions, the OD is directly proportional to each well's viable number of cells. The experiments were performed in triplicate across three different assays.

T. cruzi trypomastigotes = experiment: Generation of ROS (DCFH2-DA fluorescent probe); format: cell-based, Trypanosoma cruzi; conditions: 100 µM, 40 min, vs control without compound
Protocol: To generate radical species on T. cruzi trypomastigotes, intracellular free radicals were determined using the fluorescent probe dichlorofluorescein (DCF).
The cultures were incubated with a 20 µM DCFH2-DA solution for 15 min at 28 °C. Then, they were centrifuged at 3500 rpm and washed 2 times with phosphate buffer saline (PBS) pH 7.4. Cells loaded with DCFH2-DA were transferred to a Nunc® fluorescence 96-well plate (Thermo Fisher Scientific Inc., Waltham, MA, USA), where the nitroisoxazoles derivates were added at 100 µM. Fluorescence (exi: 488 nm, emi: 528 nm) was recorded for 40 min in a BioTek (Winooski, VT, USA) Synergy HT spectrofluorometer. The area under increase curves over time was determined using Oring 8 software, with areas normalized to control. Results are the means ± SD of three independent experiments.

[2] = test system: epimastigote of T. cruzi Dm28; experiment: Trypanocidal activity (MTT) on epimastigotes; format: cell-based; conditions: Trypanosoma cruzi; for killing at 100 µM: 24 h, n.a = not active, read-out: % T. cruzi Epimastigote (trypanocidal effect); for IC50: T. cruzi Dm28, 24 h, read-out: IC50 T. cruzi E (epimastigote)
Protocol: As a preliminary step, a study of nitroisoxazole derivatives on the epimastigote form of T. cruzi was performed. Despite the epimastigote form not being a clinical form present in mammals, its easy handling has allowed screening for the trypanocidal activity of various compounds. It is worth noting that, during the intracellular life cycle of the parasite, a form similar to the epimastigote, which is biochemically and morphologically identical to the form present in the vector, has been described. […] RPMI 1640 medium) for 24 h. […] The effects of the compounds on trypomastigote and Vero cell viability were evaluated by tetrazolium salt reduction assay (MTT). […] The plates were kept overnight at 37 °C (28 °C for epimastigotes), and the optical density (OD) was determined using a 96-well microplate reader (Vantaa, Finland) at 570 nm. Under these conditions, the OD is directly proportional to each well’s viable number of cells. The experiments were performed in triplicate across three different assays.

Vero mammalian cells = experiment: Cytotoxicity (MTT) on Vero cells; format: cell-based; conditions: Chlorocebus sabaeus, 24 h
Protocol: Additionally, the cytotoxicity of the compounds on VERO mammalian cells was assessed (Table 4). […] It is observed that the majority of the derivatives present considerable cytotoxicity. […] RPMI 1640 medium) for 24 h. […] The effects of the compounds on trypomastigote and Vero cell viability were evaluated by tetrazolium salt reduction assay (MTT). […] The plates were kept overnight at 37 °C (28 °C for epimastigotes), and the optical density (OD) was determined using a 96-well microplate reader (Vantaa, Finland) at 570 nm. Under these conditions, the OD is directly proportional to each well’s viable number of cells. The experiments were performed in triplicate across three different assays.

[3] = ORAC-FL antioxidant capacity; conditions: relative to Trolox; phosphate buffer 75 mM, pH 7.4, 37 °C
Protocol: To corroborate the generation of the nitro radical, the antioxidant capacity of the series under study was determined by ORAC-FL methodology, employing a fluorescent probe to capture oxygen-centered radicals (Table 2). The ORAC-FL values of the studied compounds are close to the reference value of Trolox, indicating a low antioxidant capacity. For compounds (1-3), the presence of amino substituents decreases antioxidant activity due to their […] characteristics, preventing the presence of labile hydrogens. […] Compounds 4 and 10 present similar ORAC indexes as aromatic rings with high electron density insert the transfer of labile protons. Antioxidant capacity was determined using the ORAC-fluorescence methodology (ORAC-FL). The analysis used a 96-well white polystyrene plate reader (EnSpire multimode PerkinElmer, Waltham, MA, USA). The reaction was carried out in phosphate buffer (75 mM, pH 7.4). […] A blank with FL and AAPH, using dimethyl sulfoxide instead of the antioxidant solution, was used in each assay. […] The inhibitor capacity was expressed as ORAC-FL values and quantified by integrating the area under the curve (AUCNET). All reaction mixtures were prepared in triplicate, and at least three independent assays were performed for each sample. The area under the fluorescence decay curve (AUC) was calculated by integrating the fluorescence decay where F0 is the initial fluorescence read at 0 min, and F is the fluorescence read at the time. The AUCNET corresponding to the sample was calculated by subtracting the AUC corresponding to the blank. Data were processed using Origin […].5 SR2 (San Francisco, CA, USA). The ORAC-FL indices were calculated according to the following Equation (1): (1) ORAC-[…]]

[4] = Cyclic voltammetry (reduction of the nitro group); format: physicochemical; set-up: key to −EpcI / −EpcII / −EpaII / −EpaI: potentials in V vs Ag/AgCl; |ΔEp|: unit not given here; conditions: cyclic voltammetry at 2.0 V/s; for −EpcI / −EpcII / −EpaII: DMSO, 0.1 M TBAP, vs Ag/AgCl
From the text: The chemistry mechanism of reduction in nitroisoxazole derivatives was investigated using cyclic voltammetry.
The peak near −1.32 V corresponds to a quasi-reversible one-electron transfer, according to the criteria of Nicholson–Shain [26] (Table 1), attributable to the species −NO2/NO2.− . The latter species stable anion radical at room temperature. […] An irreversible peak at −0.93 V to the mono-electronic transfer −HNO2/HNO2.− is observed, coupled with a chemical reaction associated with […] of the formed radical. This was evidenced by the addition of NaOH (1 M), which caused a decrease in the Ic peak (Figure 2c).
As previously described, an irreversible signal assigned to hydroxylamine oxidation to a nitroso derivative is also observed for N-acylhydrazones organometallic compounds with a pendant 5-nitrofuryl group. […] Compound 7, which has the least negative reduction potential, can be attributed to introducing a nitro group in the para position of the nitroisoxazole ring. This effect can also be observed in derivatives containing halogens in the same position.
Electrochemical characterization of the new compounds was performed through cyclic voltammetry (CV) on a 693 VA Metrohm instrument (Tokyo, Japan) equipped with a 694 VA Stand converter and 693 VA processor. Potentials were recorded against the Ag/AgCl reference electrode; a hanging drop of mercury (HDME) was used as a working electrode, and platinum was used as an auxiliary electrode. Tetrabutylammonium perchlorate (TBAP, 0.1 M) in DMSO was used as a supporting electrolyte under an N2 atmosphere at room temperature. Using Nicholson´s procedure, the Ipa/Ipc values (RNO2/RNO2^−) were measured from each cyclic voltammogram with a scan rate between 0.1 and 2.5 V/s.

melting point	−EpcI [4]	−EpcII [4]	Ipa/Ipc [4]	|ΔEp| [4]	−EpaII [4]	Compound	killing at 100 µM [1]	IC50 [1]	ROS generation (DCF fluorescence intensity) (T. cruzi trypomastigotes)	killing at 100 µM [2]	IC50 [2]	IC50 (Vero mammalian cells)	ORAC-FL Index [3]
195 to 198 °C	0.81	1.53	–	–	–	Cc1noc(/C=C/c2ccc(Br)cc2)c1[N+](=O)[O-] [Compound 17, (E)-5-(4-Bromostyryl)-3-methyl-4-nitroisoxazole]	15 ± 5%	> 400 µM	did not show ROS generation	27 ± 1%	> 400 µM	> 400 µM	0.4 ± 0.2
217 to 220 °C	0.75	0.99	−0.41	90	0.90	Cc1noc(/C=C/c2cn(-c3ccc(Cl)cc3)c3ccccc23)c1[N+](=O)[O-] [Compound 13, (E)-5-(2-(1-(4-Chlorophenyl)-1H-indol-3-yl)vinyl)-3-methyl-4-nitroisoxazole]	14 ± 3%	> 400 µM	did not show ROS generation	–	> 400 µM	102 ± 6 µM	0.4 ± 0.1
151 to 153 °C	–	1.29	−0.19	100	1.19	Cc1noc(/C=C/N2CCCCC2)c1[N+](=O)[O-] [Compound 3, (E)-3-Methyl-4-nitro-5-(2-(piperidin-1-yl)vinyl)isoxazole]	20 ± 2%	> 400 µM	increase in fluorescence intensity	17 ± 5%	> 400 µM	> 400 µM	0.52 ± 0.05

— paper PMC11207111, “Assessment of the Activity of Nitroisoxazole Derivatives against Trypanosoma cruzi” (Molecules, 2024)
